From publication PMC9687798, “Atypical Substrates of the Organic Cation Transporter 1” (Biomolecules, 2022)
“Also recorded” adds a separate entry of the source.

Columns and labels:
Type in all cases: cell-based
wild-type human OCT2 = target: T1, wild-type human OCT2 (Homo sapiens, UniProt O15244); assay: Cellular uptake ratio, OCT2-overexpressing HEK293 cells vs empty vector; conditions: for uptake by OCT2 (normalised to empty vector): 1 µM and 100 µM substance; for OCT2 transport category: based on ratio uptake data at 1 µM
T1 sequence (O15244 1-555): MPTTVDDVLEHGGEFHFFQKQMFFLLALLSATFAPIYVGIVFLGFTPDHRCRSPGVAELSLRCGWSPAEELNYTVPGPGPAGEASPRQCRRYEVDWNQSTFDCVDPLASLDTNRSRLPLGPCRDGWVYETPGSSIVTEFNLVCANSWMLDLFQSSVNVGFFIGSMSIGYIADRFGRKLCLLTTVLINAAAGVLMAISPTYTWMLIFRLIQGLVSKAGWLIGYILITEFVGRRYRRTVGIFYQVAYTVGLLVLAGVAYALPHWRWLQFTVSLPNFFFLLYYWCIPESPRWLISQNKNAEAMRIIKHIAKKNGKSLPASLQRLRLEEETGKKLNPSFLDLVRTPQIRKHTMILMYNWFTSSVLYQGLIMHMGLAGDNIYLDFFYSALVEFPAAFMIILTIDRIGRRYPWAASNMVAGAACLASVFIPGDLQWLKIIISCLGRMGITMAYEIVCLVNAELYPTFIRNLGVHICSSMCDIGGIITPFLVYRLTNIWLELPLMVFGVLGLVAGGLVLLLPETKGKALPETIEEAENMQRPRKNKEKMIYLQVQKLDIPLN
How it was run: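 Flp-In HEK293 cells stably expressing transporter, or empty pcDNA5/FRT vector as control, incubated at 37 °C in HBSS with 10 mM HEPES, pH 7.4, with substrate. Uptake quantified by LC-MS with internal standard and normalised to total protein. Ratio = total uptake in transporter cells divided by that in empty-vector cells.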

OCT1 wild-type = target: T2, OCT1 wild-type (Homo sapiens, UniProt O15245); assay: Inhibition of OCT1-mediated prostaglandin uptake by MPP+; conditions: 1 mM inhibitor, 100 µM prostaglandin
T2 construct: expressed in transfected cells
Procedure: Forty-eight hours before the transport experiments, 600,000 cells were plated on 12-well plates pre-coated with poly-D-lysine and incubated at 37 °C with 5% CO2. The prepared 12-well plate with cells was positioned on a heating plate pre-warmed to 37 °C. After removing the medium, the cells were washed with 37 °C HBSS+ (10 mM HEPES in Hank’s balanced salt solution, pH 7.4). Then, one pre-defined concentration of a substrate was added to each well. The incubation period was stopped by adding 2 mL of 4 °C HBSS+ and removing the cells from the heating plate. The cells were washed twice with 4 °C HBSS+. For cell lysis, the cells were incubated for 15 min with 500 µL of 80% acetonitrile (LGC Standards, Wesel, Germany), which contained a respective internal standard (Table 1).
Figure 8 Cellular uptake of prostaglandins by OCT1. Cellular uptake ratios were determined in HEK293 cells that were transfected stably with OCT1 or its variants that were incubated with 1 µM (light blue), 10 µM (medium blue), and 100 µM (dark blue) of prostaglandin E2 and F2α for 120 s. […] Statistical significance of the uptake ratio between OCT1 and its variants and between inhibited and not inhibited OCT1 was determined using an unpaired students t-test with * p < 0.05, ** p < 0.01, and *** p < 0.001.

mutant human OCT1 D474N = target: T3, mutant human OCT1 D474N (Homo sapiens, UniProt O15245, D474N); assay: Cellular uptake by HEK293 cells overexpressing variant OCT1 D474N; conditions: 1, 10 and 100 µM, 120 s
T3 construct: expressed in transfected cells
T3 sequence (O15245 1-554 D474N): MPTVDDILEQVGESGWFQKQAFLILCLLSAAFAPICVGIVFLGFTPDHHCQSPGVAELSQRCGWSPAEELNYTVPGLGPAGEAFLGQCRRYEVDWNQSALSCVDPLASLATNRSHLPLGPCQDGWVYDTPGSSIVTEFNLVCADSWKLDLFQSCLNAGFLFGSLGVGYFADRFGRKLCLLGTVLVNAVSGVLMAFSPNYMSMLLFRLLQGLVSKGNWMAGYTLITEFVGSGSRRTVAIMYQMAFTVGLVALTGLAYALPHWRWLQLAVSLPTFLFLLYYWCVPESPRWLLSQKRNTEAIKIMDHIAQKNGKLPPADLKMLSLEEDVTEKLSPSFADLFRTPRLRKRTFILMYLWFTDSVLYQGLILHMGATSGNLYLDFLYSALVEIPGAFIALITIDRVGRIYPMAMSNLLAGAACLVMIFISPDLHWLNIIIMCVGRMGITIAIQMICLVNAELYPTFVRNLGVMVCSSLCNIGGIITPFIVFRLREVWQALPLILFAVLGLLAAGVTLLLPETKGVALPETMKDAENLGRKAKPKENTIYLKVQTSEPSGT

| Compound | uptake by OCT2 (normalised to empty vector) (wild-type human OCT2) | OCT2 transport category (wild-type human OCT2) | uptake by OCT1 wild-type with the inhibitor MPP+ (OCT1 wild-type) | uptake of prostaglandins by OCT1 D474N in comparison to wild-type (mutant human OCT1 D474N) |
| --- | --- | --- | --- | --- |
| Nc1nc(=O)n([C@@H]2CS[C@H](CO)O2)cc1F [Emtricitabine, emtricitabine] | cellular uptake by OCT2 was observed | – | – | – |
| N[C@@H](Cc1ccc(O)c(O)c1)C(=O)O [Levodopa, levodopa] | – | 0 (no transport by OCT1, OCT2, and OCT3 occurred (i.e., no kinetic parameters or uptake ratio <2 without significance)) | – | – |
| N=C(N)c1ccc(OCCCCCOc2ccc(C(=N)N)cc2)cc1 [Pentamidine, pentamidine] | – | 0 (no transport by OCT1, OCT2, and OCT3 occurred (i.e., no kinetic parameters or uptake ratio <2 without significance)) | – | – |
| CCCCC[C@H](O)/C=C/[C@H]1[C@H](O)CC(=O)[C@@H]1C/C=C\CCCC(=O)O [Prostaglandin E2, prostaglandin E2] | – | – | statistically significantly reduced uptake | reduced to the level of the control cell line; also recorded: almost abolished |
| CCCCC[C@H](O)/C=C/[C@@H]1[C@@H](C/C=C\CCCC(=O)O)[C@@H](O)C[C@H]1O [Prostaglandin F2α, prostaglandin F2α] | – | – | not statistically significant | reduced to the level of the control cell line |
| COc1cc(Cc2cnc(N)nc2N)cc(OC)c1OC [Trimethoprim, trimethoprim] | only minimal | +/− (poor transport with a Clint < 5 or ratio between 1–2 with statistical significance (p < 0.05)) | – | – |
| Nc1ccn([C@H]2CC[C@@H](CO)O2)c(=O)n1 [Zalcitabine, zalcitabine] | cellular uptake by OCT2 was observed | + (good substrates of OCTs when the intrinsic clearance is between 5–15 or the ratio is 2–10) | – | – |
